These results are taken from PubChem BioAssay (NCI).

The structures appear in SMILES notation.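 Test compounds were applied to cells in 96-well plates for 48 hours at 5 doses. TGI denotes the concentration required for complete inhibition of growth.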

The first assay deals with NCI-H226 lung. Nature of the assay: NCI tumour cell line growth inhibition, 48 h.
Regarding `COc1ccc(CN(Cc2ccc(OC)cc2)C(=O)CC2(O)C=CCC2)cc1` (stereo not drawn), the TGI is > 100 µM.
Turning to `O=C(NC(CO)Cc1ccc(Oc2cc(CC(CO)NC(=O)OCc3ccccc3)ccc2OC(=O)OCc2ccccc2)cc1)OCc1ccccc1` (stereo not drawn), the TGI was 40.7 µM.
Take `N#C/C(N)=C(\C#N)NC=NCc1ccccc1`: the TGI was > 100 µM.
Regarding `COc1ccc(/C=N/n2c(-c3ccccc3)n[nH]c2=O)cc1`, the TGI was > 100 µM.
On the same count and under the same terms, next, `CCc1nc2ccc(N=NN(C)C)cc2[nH]1`: > 100 µM; `COc1ccc(CCN=C2OCc3ccccc32)cc1OC`: > 100 µM; `CC(C)(C)c1cc(C(CO)OCCOCCO)cc(C(C)(C)C)c1O` (stereo not drawn): > 100 µM.
With `Cc1ccc(NC(=S)NNC(=O)c2cc(-c3ccccc3)nc3ccccc23)cc1`, the TGI is 39.7 µM.
Still for that read-out and setting: to `O=C(CCc1cc(O)cc(O)c1)NCCc1cc(O)cc(O)c1` belongs > 100 µM; to `CCCCCC(/C=C/C1CCC(=O)C1CC#C[Si](C)(C)C)OCc1ccccc1` (stereo not drawn), > 94.7 µM.
The compound `COC(=O)C1C=CN(N(C)C)C2=C1C(=O)c1c(O)cccc1C2=O` (stereo not drawn) yielded a TGI of 3.94 µM.

The next assay has as its system HL-60(TB) leukemia. Nature of the assay: NCI tumour cell line growth inhibition, 48 h.
Turning to `COc1ccc(CN(Cc2ccc(OC)cc2)C(=O)CC2(O)C=CCC2)cc1` (stereo not drawn), the TGI was > 100 µM.
Same read-out and setting: next, `O=C(NC(CO)Cc1ccc(Oc2cc(CC(CO)NC(=O)OCc3ccccc3)ccc2OC(=O)OCc2ccccc2)cc1)OCc1ccccc1` (stereo not drawn): 41.7 µM; `N#C/C(N)=C(\C#N)NC=NCc1ccccc1`: > 100 µM; `CN(CCN(C)C(=S)NN)C(=S)NN`: > 100 µM.
Same read-out and setting: to `COc1ccc(CCN=C2OCc3ccccc32)cc1OC` belongs 32.6 µM.

For another assay, the system named is SNB-75 CNS. The assay is described as follows: NCI tumour cell line growth inhibition, 48 h.
As to `COc1ccc(CN(Cc2ccc(OC)cc2)C(=O)CC2(O)C=CCC2)cc1` (stereo not drawn), the TGI is > 100 µM.
Take `O=C(NC(CO)Cc1ccc(Oc2cc(CC(CO)NC(=O)OCc3ccccc3)ccc2OC(=O)OCc2ccccc2)cc1)OCc1ccccc1` (stereo not drawn): the TGI worked out at 51.1 µM.
The same measure, in the same setting: to `N#C/C(N)=C(\C#N)NC=NCc1ccccc1` belongs > 100 µM.
The same measure, in the same setting: next, `COc1ccc(/C=N/n2c(-c3ccccc3)n[nH]c2=O)cc1`: > 100 µM.
Regarding `CCc1nc2ccc(N=NN(C)C)cc2[nH]1`, the TGI was > 100 µM.
On the same count and under the same terms, next, `CN(CCN(C)C(=S)NN)C(=S)NN`: > 100 µM; `COc1ccc(CCN=C2OCc3ccccc32)cc1OC`: > 100 µM; `CC(C)(C)c1cc(C(CO)OCCOCCO)cc(C(C)(C)C)c1O` (stereo not drawn): > 100 µM.
Same read-out and setting: next, `Cc1ccc(NC(=S)NNC(=O)c2cc(-c3ccccc3)nc3ccccc23)cc1`: 42.3 µM.
Same read-out and setting: next, `O=C(CCc1cc(O)cc(O)c1)NCCc1cc(O)cc(O)c1`: > 100 µM; `CCCCCC(/C=C/C1CCC(=O)C1CC#C[Si](C)(C)C)OCc1ccccc1` (stereo not drawn): 41.3 µM; `COC(=O)C1C=CN(N(C)C)C2=C1C(=O)c1c(O)cccc1C2=O` (stereo not drawn): 3.19 µM.

The next assay relates to HS 578T breast. Nature of the assay: NCI tumour cell line growth inhibition, 48 h.
For `COc1ccc(CN(Cc2ccc(OC)cc2)C(=O)CC2(O)C=CCC2)cc1` (stereo not drawn), the TGI is > 100 µM.
Still for that read-out and setting: to `O=C(NC(CO)Cc1ccc(Oc2cc(CC(CO)NC(=O)OCc3ccccc3)ccc2OC(=O)OCc2ccccc2)cc1)OCc1ccccc1` (stereo not drawn) belongs 28.4 µM; to `N#C/C(N)=C(\C#N)NC=NCc1ccccc1`, > 100 µM.
In turn, `COc1ccc(/C=N/n2c(-c3ccccc3)n[nH]c2=O)cc1` came in with a TGI of 93.7 µM.
The same measure, in the same setting: to `CCc1nc2ccc(N=NN(C)C)cc2[nH]1` belongs > 100 µM.
Still for that read-out and setting: to `CN(CCN(C)C(=S)NN)C(=S)NN` belongs > 100 µM; to `COc1ccc(CCN=C2OCc3ccccc32)cc1OC`, > 100 µM; to `CC(C)(C)c1cc(C(CO)OCCOCCO)cc(C(C)(C)C)c1O` (stereo not drawn), > 100 µM.
With `Cc1ccc(NC(=S)NNC(=O)c2cc(-c3ccccc3)nc3ccccc23)cc1`, the TGI came to 38.2 µM.
Take `O=C(CCc1cc(O)cc(O)c1)NCCc1cc(O)cc(O)c1`: the TGI was > 100 µM.
Still for that read-out and setting: next, `CCCCCC(/C=C/C1CCC(=O)C1CC#C[Si](C)(C)C)OCc1ccccc1` (stereo not drawn): 39.6 µM; `COC(=O)C1C=CN(N(C)C)C2=C1C(=O)c1c(O)cccc1C2=O` (stereo not drawn): 7.58 µM.

The next assay concerns MOLT-4 leukemia. Nature of the assay: NCI tumour cell line growth inhibition, 48 h.
Regarding `COc1ccc(CN(Cc2ccc(OC)cc2)C(=O)CC2(O)C=CCC2)cc1` (stereo not drawn), the TGI was > 100 µM.
Same read-out and setting: to `O=C(NC(CO)Cc1ccc(Oc2cc(CC(CO)NC(=O)OCc3ccccc3)ccc2OC(=O)OCc2ccccc2)cc1)OCc1ccccc1` (stereo not drawn) belongs 22.4 µM.
Still for that read-out and setting: next, `N#C/C(N)=C(\C#N)NC=NCc1ccccc1`: > 100 µM; `COc1ccc(/C=N/n2c(-c3ccccc3)n[nH]c2=O)cc1`: > 100 µM; `CCc1nc2ccc(N=NN(C)C)cc2[nH]1`: > 100 µM.
The same measure, in the same setting: to `CN(CCN(C)C(=S)NN)C(=S)NN` belongs > 100 µM; to `COc1ccc(CCN=C2OCc3ccccc32)cc1OC`, > 100 µM; to `Cc1ccc(NC(=S)NNC(=O)c2cc(-c3ccccc3)nc3ccccc23)cc1`, 44.3 µM.
For the compound `O=C(CCc1cc(O)cc(O)c1)NCCc1cc(O)cc(O)c1`, the TGI was > 100 µM.
Take `CCCCCC(/C=C/C1CCC(=O)C1CC#C[Si](C)(C)C)OCc1ccccc1` (stereo not drawn): the TGI is > 68.9 µM.

For a further assay, the system named is RXF 393 renal. Nature of the assay: NCI tumour cell line growth inhibition, 48 h.
`CCc1nc2ccc(N=NN(C)C)cc2[nH]1`: the TGI is > 100 µM.
The same measure, in the same setting: to `CC(C)(C)c1cc(C(CO)OCCOCCO)cc(C(C)(C)C)c1O` (stereo not drawn) belongs > 100 µM.
The same measure, in the same setting: next, `Cc1ccc(NC(=S)NNC(=O)c2cc(-c3ccccc3)nc3ccccc23)cc1`: 26.6 µM.
